How the values were obtained:
trypanothione reductase [1] = biological target: T1, trypanothione reductase (Trypanosoma cruzi, UniProt P28593); test: crystal structure of the covalent adduct at […] Å; assay type: biochemical; conditions: read-out: Ki
trypanothione reductase [2] = biological target: T1, trypanothione reductase; test: protection of oxidised enzyme from QM inactivation; assay type: biochemical

T1 sequence (P28593 whole entry): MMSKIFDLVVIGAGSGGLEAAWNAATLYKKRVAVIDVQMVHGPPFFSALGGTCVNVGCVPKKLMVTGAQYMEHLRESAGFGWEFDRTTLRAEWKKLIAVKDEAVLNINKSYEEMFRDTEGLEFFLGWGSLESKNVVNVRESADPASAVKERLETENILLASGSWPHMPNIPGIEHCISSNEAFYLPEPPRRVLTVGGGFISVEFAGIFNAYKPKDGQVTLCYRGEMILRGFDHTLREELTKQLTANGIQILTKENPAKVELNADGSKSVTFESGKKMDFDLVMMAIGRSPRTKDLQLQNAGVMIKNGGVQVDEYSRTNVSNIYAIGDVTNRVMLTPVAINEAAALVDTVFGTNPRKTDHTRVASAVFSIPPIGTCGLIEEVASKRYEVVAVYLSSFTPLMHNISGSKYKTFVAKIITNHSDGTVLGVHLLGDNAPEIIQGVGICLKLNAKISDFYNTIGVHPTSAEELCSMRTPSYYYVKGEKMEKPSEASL

Structure (SMILES): COc1ccc2nc3cc(Cl)ccc3c(NC(C)CCCN(CCCl)CCCl)c2c1 (racemic) [QM, quinacrine mustard]
- KI (inactivation) (trypanothione reductase [1]): 41 ± 8 µM

Structure (SMILES): CCN(CC)CCCC(C)Nc1c2ccc(Cl)cc2nc2ccc(OC)cc12 (centres unmarked) [quinacrine]
- Ki (trypanothione reductase [2]): 208 ± 45 µM
